{"source": "patent US12624037B2", "about": "“Method of treating agitation, aggressive behavior, and impulse control disorder” (INTRA-CELLULAR THERAPIES, INC., priority 2012, dated 2026)", "key": {"healthy male volunteers [1]": {"tested_on": "healthy male volunteers", "assay": "Placebo-controlled multiple oral dose study, once daily for 5 days", "type": "in vivo, human", "from_the_text": "(§1) Pregnant or nursing women are excluded and men and women of childbearing potential use birth control."}, "muscarinic receptors": {"tested_on": "muscarinic receptors", "assay": "Muscarinic receptor affinity", "type": "binding"}, "[2]": {"tested_on": "veterans with non-remitting posttraumatic stress disorder", "assay": "Open label study of Compound A as adjunctive treatment to SSRI in non-remitting PTSD", "type": "in vivo, human", "procedure": "The target dose is 40 mg/d, but the dose is reduced to 20 mg/d as needed due to side effects. The study medication is stored and dispensed by the TVAMC pharmacy. The baseline SSRI medication is continued throughout the 12-wks study.\nBaseline Procedures and Follow-up Assessments: Subjects are assessed by the investigators or trained clinical research coordinators with telephone contacts every two weeks and the assessments (indicated in the Table below) every four weeks.\nClinician Administered PTSD Scale (CAPS; Primary Outcome): A structured clinician-administered interview is used to assess frequency and intensity of 17 symptoms of PTSD. The CAPS is further subdivided into three clusters to allow scoring for Criterion B (re-experiencing), Criterion C (avoidant behaviors) and Criterion D (hyper-arousal). […]\nIn addition to change scores, rates of response (≥30% decrease in CAPS) and remission ([…]) are determined Within-group effect sizes using Cohen's d for the continuous outcomes is determined. The number needed to treat (NNT) for response and remission rates is determined. […]"}, "[3]": {"assay": "Randomized, double-blind, placebo-controlled single oral dose escalation study (safety, tolerability, pharmacokinetics)", "type": "in vivo, human", "conditions": "male, human, plasma; oral administration", "from_the_text": "as §1"}, "healthy male volunteers [4]": {"tested_on": "healthy male volunteers", "assay": "Randomized, double-blind, placebo-controlled single oral dose escalation study (safety, tolerability, pharmacokinetics)", "type": "in vivo, human", "from_the_text": "as §1"}, "H1": {"target": "H1 (Homo sapiens, UniProt P35367)", "sequence (P35367 whole entry)": "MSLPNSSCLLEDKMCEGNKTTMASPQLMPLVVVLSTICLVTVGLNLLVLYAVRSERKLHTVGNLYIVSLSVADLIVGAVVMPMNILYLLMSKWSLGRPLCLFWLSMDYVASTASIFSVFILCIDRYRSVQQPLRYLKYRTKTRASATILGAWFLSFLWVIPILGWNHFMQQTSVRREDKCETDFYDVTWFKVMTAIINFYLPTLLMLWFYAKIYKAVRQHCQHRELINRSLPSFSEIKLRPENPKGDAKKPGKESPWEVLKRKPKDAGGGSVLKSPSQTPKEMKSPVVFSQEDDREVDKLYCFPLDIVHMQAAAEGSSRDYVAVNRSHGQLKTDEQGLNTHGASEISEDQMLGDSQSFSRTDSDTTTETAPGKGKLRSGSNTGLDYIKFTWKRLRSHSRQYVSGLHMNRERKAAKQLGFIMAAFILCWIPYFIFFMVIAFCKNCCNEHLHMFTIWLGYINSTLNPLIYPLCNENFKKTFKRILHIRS", "assay": "H1 receptor affinity (off-target)", "type": "binding"}, "5-HT2C receptor": {"target": "5-HT2C receptor (Homo sapiens, UniProt P28335)", "sequence (P28335 33-458)": "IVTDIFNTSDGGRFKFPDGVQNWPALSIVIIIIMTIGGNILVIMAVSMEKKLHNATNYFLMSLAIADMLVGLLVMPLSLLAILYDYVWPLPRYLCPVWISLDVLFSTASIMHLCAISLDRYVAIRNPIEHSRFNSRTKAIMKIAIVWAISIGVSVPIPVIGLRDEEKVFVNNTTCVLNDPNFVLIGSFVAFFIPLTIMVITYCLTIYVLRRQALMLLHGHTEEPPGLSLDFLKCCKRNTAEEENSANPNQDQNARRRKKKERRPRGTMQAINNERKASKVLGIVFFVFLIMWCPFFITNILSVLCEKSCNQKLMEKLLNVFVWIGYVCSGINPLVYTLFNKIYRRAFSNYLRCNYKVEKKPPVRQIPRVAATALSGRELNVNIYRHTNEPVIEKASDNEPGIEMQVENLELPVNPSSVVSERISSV", "conditions": "read-out: 5-HT2C Ki"}, "[5]": {"target": "cytochrome P450 3A4 (CYP3A4) (Homo sapiens, UniProt P08684)", "sequence (P08684 whole entry)": "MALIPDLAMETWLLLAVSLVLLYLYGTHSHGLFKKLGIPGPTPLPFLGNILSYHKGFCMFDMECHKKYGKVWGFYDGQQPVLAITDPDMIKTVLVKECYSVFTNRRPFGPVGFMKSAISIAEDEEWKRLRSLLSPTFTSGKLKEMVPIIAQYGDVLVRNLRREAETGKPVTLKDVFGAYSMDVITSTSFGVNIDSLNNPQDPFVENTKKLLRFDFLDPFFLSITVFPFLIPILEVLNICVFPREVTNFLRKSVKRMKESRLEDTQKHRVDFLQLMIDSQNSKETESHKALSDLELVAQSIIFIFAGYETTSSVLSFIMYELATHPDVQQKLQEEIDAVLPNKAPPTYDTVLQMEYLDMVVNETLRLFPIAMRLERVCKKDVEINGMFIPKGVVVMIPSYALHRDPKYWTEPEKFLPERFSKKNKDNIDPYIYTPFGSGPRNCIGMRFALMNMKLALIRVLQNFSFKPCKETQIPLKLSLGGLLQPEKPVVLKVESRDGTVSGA", "assay": "Metabolism by cytochrome P450", "type": "in vitro ADME"}, "any CYP enzyme": {"tested_on": "any CYP enzyme", "assay": "CYP enzyme inhibition", "type": "in vitro ADME"}, "Mice [6]": {"tested_on": "Mice", "assay": "Social defeat/resident intruder paradigm, social isolation behavior", "type": "in vivo", "procedure": "Mice are tested for social isolation behavior after repeated exposure (once daily for 10 days) to an aggressive resident intruder mouse in the social defeat/resident intruder paradigm as describe by Berton et al., Science (2006) 311:864-868, the contents of which are incorporated by reference. […] On the day after the last drug or vehicle treatment, the mice are placed in the open field in the presence of a resident intruder mouse and the animal's behavior recorded by videotape for 10 min. The videotapes are then scored for the total time each mouse spent during a 10 min period in specified open-field quadrants. The total time (sec) spent by mice representing each drug treatment group in the Interaction Zone in proximity to the resident intruder mouse or, in the Corner Zones, at a distance from the intruder mouse is expressed as a mean (±SEM).\nIn the experiment described or similarly described above, mice are subjected to exposure to an aggressive resident intruder mouse in the social defeat/resident intruder paradigm as described in Berton et al., Science (2006) 311:864-868. […] On the day after the last drug or vehicle treatment the mice are placed in the open field in the presence of a resident intruder mouse and the total time each mouse spent during a 10 min period in defined open-field quadrants in close proximity to the intruder or in isolation to the intruder is measured."}, "[7]": {"tested_on": "healthy volunteer and clinical populations", "assay": "Safety and tolerability in healthy volunteer and clinical populations", "type": "in vivo, human", "from_the_text": "Physical Risks: Side effects are listed in the informed consent and reviewed carefully with the subject.\nas §1"}, "Mice [8]": {"tested_on": "Mice", "conditions": "chronic administration; Berton et al., Science (2006); cited from earlier work"}, "[9]": {"conditions": "chronic treatment 1 mg/kg IP, 30 d"}}, "data": [{"smiles": "CN1CCN2c3c(cccc31)[C@@H]1CN(CCCC(=O)c3ccc(F)cc3)CC[C@@H]12", "note": "[Compound A]", "values": [{"measurement": "accumulation in plasma with repeated administration", "setting": "healthy male volunteers [1]; Day 5 vs Day 1 pharmacokinetics", "result": "no accumulation"}, {"measurement": "safety and tolerability", "setting": "healthy male volunteers [1]; multiple oral doses of 5, 10 and 20 mg once daily for 5 days", "result": "safe and well tolerated"}, {"measurement": "affinity for muscarinic receptors", "setting": "muscarinic receptors", "result": "no affinity"}, {"measurement": "efficacy for treatment of PTSD", "setting": "[2]; adjunctive to SSRI, 12 weeks", "result": "effective"}, {"measurement": "change in rating scale scores (CAPS, QIDS-SR, CGI-I, PANSS, SDS)", "setting": "[2]; baseline to end of 12-week treatment, 20-40 mg/d adjunctive to SSRI", "result": "significant decline"}, {"measurement": "Tmax", "setting": "[3]", "result": "~1", "unit": "h"}, {"measurement": "dose dependence of pharmacokinetics", "setting": "healthy male volunteers [4]; oral administration of increasing doses", "result": "dose-proportional linear pharmacokentics"}, {"measurement": "QTc", "setting": "healthy male volunteers [4]; single oral doses 2.5-30.0 mg", "result": "no significant increase"}, {"measurement": "changes in 12-lead ECG or 24-hour Holter-ECG", "setting": "healthy male volunteers [4]; single oral doses 2.5-30.0 mg", "result": "no clinically significant changes"}, {"measurement": "changes in vital signs or clinical laboratory", "setting": "healthy male volunteers [4]; single oral doses 2.5-30.0 mg", "result": "no dose-related clinically relevant changes"}, {"measurement": "serious adverse events", "setting": "healthy male volunteers [4]; single oral doses 2.5-30.0 mg", "result": "no serious adverse events"}, {"measurement": "severity of adverse events", "setting": "healthy male volunteers [4]; single oral doses 2.5-30.0 mg", "result": "mild to moderate"}, {"measurement": "safety and tolerability", "setting": "healthy male volunteers [4]; single oral doses of 2.5, 5.0, 10.0, 20.0 and 30.0 mg", "result": "safe and tolerated"}, {"measurement": "Ki", "setting": "H1", "result": "> 1000", "unit": "nM"}, {"measurement": "Ki", "setting": "5-HT2C receptor", "result": 173, "unit": "nM"}, {"measurement": "metabolizing enzyme", "setting": "[5]", "result": "metabolized predominantly by cytochrome P450 3A4 (CYP3A4)"}, {"measurement": "CYP inhibition", "setting": "any CYP enzyme", "result": "not a potent inhibitor"}, {"measurement": "time spent in the Interaction Zone, treatment alone", "setting": "Mice [6]; 1 mg/kg IP once daily for 30 d, no defeat, compared with untreated control mice", "result": "did not result in differences"}, {"measurement": "time spent in proximity to the intruder after exposure to the intruder paradigm", "setting": "Mice [6]; 1 mg/kg IP once daily for 30 d, compared with Compound A alone", "result": "no significant reduction"}, {"measurement": "effect on social defeat behavior", "setting": "Mice [6]; [9]", "result": "reversal of social defeat behavior"}, {"measurement": "functional anti-depressant activity", "setting": "Mice [6]; [9]", "result": "has functional anti-depressant activity"}, {"measurement": "severity of adverse events", "setting": "[7]; headache, dizziness, postural tachycardia, dry mouth, gastrointestinal complaints, somnolence", "result": "mild to moderate"}, {"measurement": "hyper-prolactinemia", "setting": "[7]; human, in vivo", "result": "does not produce hyper-prolactinemia"}, {"measurement": "sexual dysfunction", "setting": "[7]; human, in vivo", "result": "no reports of sexual dysfunction"}, {"measurement": "safety and tolerability", "setting": "[7]; range of doses 1-140 mg", "result": "safe and well-tolerated"}, {"measurement": "cardiovascular side effects such as postural hypotension", "setting": "[7]; related to alpha 1A activity, to date", "result": "not been associated with any cardiovascular side effects"}]}, {"smiles": "CNCCC(Oc1ccc(C(F)(F)F)cc1)c1ccccc1", "note": "(stereo not drawn) [fluoxetine]", "values": [{"measurement": "isolation behavior in social defeat/resident intruder model", "setting": "Mice [8]", "result": "reversed"}]}]}
